The results in this text go back to patent publication US20260193257A1, “BICYCLIC DERIVATIVES” (Elanco Tiergesundheit AG, priority 2018, published 2026).

One test relates to T. colubriformis. Nature of the test: Gastro intestinal nematodes, infected jird model (T. colubriformis). The note with it: Jirds (Meriones unguiculatus), oral, Day 6 after infection, dose between 1×3 mg/kg and 1×32 mg/kg, worms recovered from small intestine three days after treatment.
In the next test the test system is D. immitis microfilariae. Nature of the test: Dog heart worm microfilariae motility assay. It is filed as cell-based. The conditions noted are these: Dirofilaria immitis, read-out: EC50 (motility inhibition).
The subject of test [1] is H. contortus (H.c.) larvae. Nature of the test: Ruminant gastrointestinal (H. contortus) larval motility assay. The conditions noted are these: Haemonchus contortus, read-out: EC50 (motility inhibition).
Method: H.c. eggs isolated from lamb fecal matter are allowed to hatch overnight. Test compounds are diluted in DMSO and added to a 96-well plate containing appropriate media. H.c. larvae are added to each well and plates are incubated for the desired time(s). Motility is assessed using an LCD camera imaging system. Percent motility inhibition values are generated relative to the average of the DMSO-only wells.
The next test deals with L. sigmodontis. Nature of the test: L.s. model in mice. The note with it: oral gavage, dose between 1×3 mg/kg and 5×32 mg/kg, necropsy 5 weeks after infection.

Method for L. sigmodontis: Model Mice, injected subcutaneously with infective L. sigmodontis larvae, were subsequently treated with the test article formulated in eg DMSO/PEG 2/1, by oral gavage at a dose in a range between 1×3 mg/kg up to 5×32 mg/kg (one dose per day for 5 consecutive days). At necropsy 5 weeks after infection, efficacy is calculated by counting developed larvae vs. untreated animals using Abbot's formula.
Method for T. colubriformis: Jirds (Meriones unguiculatus), are artificially infected by gavage with third instar larvae each of T. colubriformis and H. contortus. Then treated orally with the test compound formulated in eg DMSO/PEG 2/1, on Day 6 after infection at a dose in a range between 1×3 mg/kg up to 1×32 mg/kg. Three days after treatment, gerbils are euthanized and dissected to recover H. contortus from stomach and T. colubriformis from the small intestine. Efficacy is expressed as a % reduction in worm numbers in comparison with a placebo treated group, using the Abbot's formula.

Broadly, the EC50 is the concentration needed to bring the measured effect to its halfway point. Turning to `CN(C)c1c(NC(=O)[C@@H]2CCOc3ccccc32)cnc2c(-c3cc(Cl)cc(Cl)c3)cccc12` [Example 1.1, (4R)—N-[8-(3,5-dichlorophenyl)-4-(dimethylamino)-3-quinolyl]chromane-4-carboxamide], the “Efficacy against Tc (% reduction in worm numbers vs placebo, Abbot's formula)” value in the test with T. colubriformis is listed as over 80%. The EC50 with D. immitis microfilariae is under 0.1 µg/mL; in test [1], under 1 µg/mL. In the case of `CN(C)c1c(NC(=O)[C@@H]2CCCc3ccccc32)cnc2c(-c3cc(Cl)cc(Cl)c3)cccc12` [Example 1.3, (1R)-N-[8-(3,5-dichlorophenyl)-4-(dimethylamino)-3-quinolyl]tetralin-1-carboxamide], the EC50 with D. immitis microfilariae was under 0.1 µg/mL. `CN(C)c1c(NC(=O)[C@H]2CCCc3ccccc32)cnc2c(-c3cc(Cl)cc(Cl)c3)cccc12` [Example 1.4, (1S)-N-[8-(3,5-dichlorophenyl)-4-(dimethylamino)-3-quinolyl]tetralin-1-carboxamide]: in the test with L. sigmodontis, the “Efficacy against Ls (developed larvae vs. untreated animals, Abbot's formula)” value is listed as over 80%. The values for the EC50 (with D. immitis microfilariae; in test [1]) were under 0.1 µg/mL and under 1 µg/mL, respectively. Regarding `O=C(Nc1cnc2c(-c3cc(Cl)cc(Cl)c3)cccc2c1C1CC1)[C@H]1CCOc2ccccc21` [Example 1.6, (4S)-N-[4-cyclopropyl-8-(3,5-dichlorophenyl)-3-quinolyl]chromane-4-carboxamide], the EC50 in the test with D. immitis microfilariae is under 0.1 µg/mL; in test [1], under 1 µg/mL. Regarding `CON(C)c1c(NC(=O)[C@@H]2CCOc3ccccc32)cnc2c(-c3cc(Cl)cc(Cl)c3)cccc12` [Example 1.7, (4R)-N-[8-(3,5-dichlorophenyl)-4-[methoxy(methyl)amino]-3-quinolyl]chromane-4-carboxamide], in the test on D. immitis microfilariae, the EC50 was under 0.1 µg/mL. For the compound `CN(C)c1c(NC(=O)[C@H]2CCOc3ccccc32)cnc2c(-c3cccc(Cl)c3Cl)cccc12` [Example 1.9, (4S)-N-[8-(2,3-dichlorophenyl)-4-(dimethylamino)-3-quinolyl]chromane-4-carboxamide], the EC50 with D. immitis microfilariae is under 0.1 µg/mL; in test [1] it was under 1 µg/mL. In the same order, the values of `CN(C)c1c(NC(=O)[C@H]2CCOc3ccccc32)cnc2c(-c3cc(Cl)cc(C(F)(F)F)c3)cccc12` [Example 1.11, (4S)-N-[8-[3-chloro-5-(trifluoromethyl)phenyl]-4-(dimethylamino)-3-quinolyl]chromane-4-carboxamide] are under 0.1 µg/mL and under 1 µg/mL.

For the compound `O=C(Nc1cnc2c(-c3cc(Cl)cc(Cl)c3)cccc2c1N1CCOCC1)[C@H]1CCOc2ccccc21` [Example 1.12, (4S)-N-[8-(3,5-dichlorophenyl)-4-morpholino-3-quinolyl]chromane-4-carboxamide], the values for the EC50 (in the test on D. immitis microfilariae; in test [1]) were under 0.1 µg/mL and under 1 µg/mL, respectively. For the compound `CN(C)c1c(NC(=O)[C@@H]2CCOc3ccccc32)cnc2c(-c3cc(Cl)cc(Cl)c3)nccc12` [Example 4.2, (4R)-N-[8-(3,5-dichloro-dichlorophenyl)-4-(dimethylamino)-1,7-naphthyridin-3-yl]chromane-4-carboxamide], in test [1], the EC50 was under 1 µg/mL. Take `CN(C)c1c(NC(=O)[C@@H]2CCOc3ccccc32)cnc2c(-c3cc(Cl)cc(Cl)c3)ccnc12` [Example 6.1, (4R)—N-[8-(3,5-dichlorophenyl)-4-(dimethylamino)-1,5-naphthyridin-3-yl]chromane-4-carboxamide]: the EC50 in test [1] was under 1 µg/mL. As for `CN(C)c1c(NC(=O)[C@H]2CCOc3ccccc32)cnc2c(-c3cc(Cl)cc(Cl)c3)ccnc12` [Example 6.2, (4S)-N-[8-(3,5-dichlorophenyl)-4-(dimethylamino)-1,5-naphthyridin-3-yl]chromane-4-carboxamide], the EC50 in the test on D. immitis microfilariae is under 0.1 µg/mL; in test [1], under 1 µg/mL. For `O=C(Nc1cnc2c(-c3cc(Cl)cc(Cl)c3)ccnc2c1N1CCOCC1)[C@H]1CCOc2ccccc21` [Example 6.3, (4S)-N-[8-(3,5-dichlorophenyl)-4-morpholino-1,5-naphthyridin-3-yl]chromane-4-carboxamide], in that order: under 0.1 µg/mL and under 1 µg/mL. In the case of `CN(C)c1c(NC(=O)N[C@H]2CCOc3ccccc32)cnc2c(-c3cc(Cl)cc(Cl)c3)cccc12` [Example 7.1, 1-[(4S)-Chroman-4-yl]-3-[8-(3,5-dichlorophenyl)-4-(dimethylamino)-3-quinolyl]urea], in test [1], the EC50 is under 1 µg/mL.
